Data taken from patent US10407467B2, “Polymyxin derivatives and their use in combination therapy together with different antibiotics” (priority 2013, dated 2019).
Where a name gives a salt, the structure may show the parent alone. Numbered stars: 1 amine (or outer) side, 2 acyl side, 3 side chain; on linkers, the order of the positions; unused ones are H or OH. Bridge positions count the residues as written; N and C are the ends. Square brackets hold non-standard residues; d marks the D form. Peptide text beside a SMILES is read from it. * marks the point of attachment. ξ: configuration not given here. Acetyl(cis-4-NH-cyclohexyl) = O=C(C[C@H]1CC[C@@H](N[*:1])CC1)[*:2]; ξHexahydromandeloyl = O=C(C(O)C1CCCCC1)*; Cyclohexylacetyl = O=C(CC1CCCCC1)*; X8 = N[C@@H]1CC[C@H](C(=O)*)C1; Thr(3ξ) = CC(O)[C@H](N)C(=O)O; X5 = O=C(C[C@@H]1CCCCN1)*; Octanoyl = CCCCCCCC(=O)*; Dab = NCC[C@H](N)C(=O)O; X4 = NC1CCCC1C(=O)*

What was measured:
Assay in all cases: MIC, compound in combination with a second agent (broth microdilution)
Assay type in all cases: cell-based
Acinetobacter baumannii = settings: 1:1 (wt:wt) combination with Rifampicin
Outline: (§1)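 MIC = combined concentration of test compound plus partner agent, mixed at equal mass (1:1 w/w, salt form as used). Up to four strains per species; colonies adjusted to 0.5 McFarland. Run in duplicate; >2-fold disagreement invalidates the run.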

Escherichia coli = settings: 1:1 (wt:wt) combination with Rifampicin
Outline: as §1

Klebsiella pneumoniae = settings: 1:1 (wt:wt) combination with Rifampicin; for MIC K. pneumoniae ATCC 4352: strain ATCC 4352
Outline: as §1

Pseudomonas aeruginosa = settings: 1:1 (wt:wt) combination with Rifampicin
Outline: as §1

[1] = MIC = total drug concentration, strain ATCC BAA-747
[2] = MIC = total drug concentration, strain CCUG57249
[3] = MIC = total drug concentration, strain NCTC 13423
[4] = MIC = total drug concentration, strain NCTC 13424
[5] = MIC is total drug concentration
[6] = MIC = total drug concentration, strain ATCC25922
[7] = MIC = total drug concentration, strain NCTC9001
[8] = MIC = total drug concentration, strain ATCC-BAA-2146
[9] = MIC = total drug concentration, strain CCUG-59348
[10] = MIC = total drug concentration, strain NCTC 13438
[11] = MIC = total drug concentration, strain ATCC 27853
[12] = MIC = total drug concentration, strain ATCC CRM-9027
[13] = MIC = total drug concentration, strain ATCC-47
[14] = MIC = total drug concentration, strain CCUG 59626

| SMILES | MIC A. baumannii ATCC BAA-747 (Acinetobacter baumannii; [1]) [micrograms/mL] | MIC A. baumannii CCUG57249 (Acinetobacter baumannii; [2]) [micrograms/mL] | MIC A. baumannii NCTC 13423 (Acinetobacter baumannii; [3]) [micrograms/mL] | MIC A. baumannii NCTC 13424 (Acinetobacter baumannii; [4]) [micrograms/mL] | MIC E. coli ATCC25922 (Escherichia coli; [6]) [micrograms/mL] | MIC E. coli NCTC9001 (Escherichia coli; [7]) [micrograms/mL] | MIC K. pneumoniae ATCC-BAA-2146 (Klebsiella pneumoniae; [8]) [micrograms/mL] | MIC K. pneumoniae CCUG-59348 (Klebsiella pneumoniae; [9]) [micrograms/mL] | MIC K. pneumoniae NCTC 13438 (Klebsiella pneumoniae; [10]) [micrograms/mL] | MIC P. aeruginosa ATCC 27853 (Pseudomonas aeruginosa; [11]) [micrograms/mL] | MIC P. aeruginosa ATCC CRM-9027 (Pseudomonas aeruginosa; [12]) [micrograms/mL] | MIC P. aeruginosa ATCC-47 (Pseudomonas aeruginosa; [13]) [micrograms/mL] | MIC P. aeruginosa CCUG 59626 (Pseudomonas aeruginosa; [14]) [micrograms/mL] | MIC K. pneumoniae ATCC 4352 (Klebsiella pneumoniae; MIC = total drug concentration) [micrograms/mL] | further results |
| --- | --- | --- | --- | --- | --- | --- | --- | --- | --- | --- | --- | --- | --- | --- | --- |
| CC(C)C[C@@H]1NC(=O)[C@@H](Cc2ccccc2)NC(=O)[C@H](CCN)NC(=O)[C@@H](NC(=O)[C@H](CCN)NC(=O)[C@@H](NC(=O)C[C@@H]2CCCCN2)C(C)O)CCNC(=O)[C@H](C(C)O)NC(=O)[C@H](CCN)NC(=O)[C@H](CCN)NC1=O (stereo partly drawn) [Example 33, (2S)-piperidin-2-yl-ethanoyl polymyxin B nonapeptide, trifluoroacetate salt] (X5-[Thr(3ξ)][Dab][Dab][Dab][dF]L[Dab][Dab][Thr(3ξ)]; lactam 3-C) | ≤0.06 | ≤0.06 | ≤0.06 | ≤0.06 | ≤0.06 | 0.125 | 0.125 | 2 | 0.125 | ≤0.06 | ≤0.06 | ≤0.06 | ≤0.06 | – | MIC A. baumannii ATCC BAA-747 (Acinetobacter baumannii; [5]): ≤0.06 micrograms/mL; MIC A. baumannii CCUG57249 (Acinetobacter baumannii; [5]): ≤0.06 micrograms/mL; MIC A. baumannii NCTC 13423 (Acinetobacter baumannii; [5]): ≤0.06 micrograms/mL; MIC A. baumannii NCTC 13424 (Acinetobacter baumannii; [5]): ≤0.06 micrograms/mL; MIC E. coli ATCC25922 (Escherichia coli; [5]): ≤0.06 micrograms/mL; MIC E. coli NCTC9001 (Escherichia coli; [5]): 0.125 micrograms/mL; MIC K. pneumoniae ATCC-BAA-2146 (Klebsiella pneumoniae; [5]): 0.125 micrograms/mL; MIC K. pneumoniae CCUG-59348 (Klebsiella pneumoniae; [5]): 2 micrograms/mL; MIC K. pneumoniae NCTC 13438 (Klebsiella pneumoniae; [5]): 0.125 micrograms/mL; MIC P. aeruginosa ATCC 27853 (Pseudomonas aeruginosa; [5]): ≤0.06 micrograms/mL; MIC P. aeruginosa ATCC CRM-9027 (Pseudomonas aeruginosa; [5]): ≤0.06 micrograms/mL; MIC P. aeruginosa ATCC-47 (Pseudomonas aeruginosa; [5]): ≤0.06 micrograms/mL; MIC P. aeruginosa CCUG 59626 (Pseudomonas aeruginosa; [5]): ≤0.06 micrograms/mL |
| CC(C)C[C@@H]1NC(=O)[C@@H](Cc2ccccc2)NC(=O)[C@H](CCN)NC(=O)[C@@H](NC(=O)[C@H](CCN)NC(=O)[C@@H](NC(=O)C[C@H]2CC[C@@H](N)CC2)C(C)O)CCNC(=O)[C@H](C(C)O)NC(=O)[C@H](CCN)NC(=O)[C@H](CCN)NC1=O (stereo partly drawn) [Example 36, Cis-2-(4-aminocyclohexane) ethanoyl polymyxin B nonapeptide, trifluoroacetate salt] ({Acetyl(cis-4-NH-cyclohexyl)}-[Thr(3ξ)][Dab][Dab][Dab][dF]L[Dab][Dab][Thr(3ξ)]; lactam 3-C) | 0.125 | 0.25 | 0.125 | 0.5 | 0.25 | 0.125 | 0.5 | 4 | 1 | 0.25 | 0.25 | 0.125 | 0.25 | – | – |
| CC(C)C[C@@H]1NC(=O)[C@@H](Cc2ccccc2)NC(=O)[C@H](CCN)NC(=O)[C@@H](NC(=O)[C@@H](CO)NC(=O)[C@@H](NC(=O)C2CCCC2N)C(C)O)CCNC(=O)[C@H](C(C)O)NC(=O)[C@H](CCN)NC(=O)[C@H](CCN)NC1=O (stereo partly drawn) [Example 44, [2-Amino-cyclopentane-carbonyl]-L-Thr-D-Ser-polymyxin B hepatapeptide, TFA salt] (X4-[Thr(3ξ)][dS][Dab][Dab][dF]L[Dab][Dab][Thr(3ξ)]; lactam 3-C) | 0.25 | 0.125 | 0.125 | 0.125 | 0.125 | 0.5 | 1 | 4 | – | 0.5 | 0.5 | 1 | 0.5 | 0.125 | – |
| CC(C)C[C@@H]1NC(=O)[C@@H](Cc2ccccc2)NC(=O)[C@H](CCN)NC(=O)[C@@H](NC(=O)[C@@H](CO)NC(=O)[C@@H](NC(=O)C(O)C2CCCCC2)C(C)O)CCNC(=O)[C@H](C(C)O)NC(=O)[C@H](CCN)NC(=O)[C@H](CCN)NC1=O (stereo partly drawn) [Example 46, [2-cyclohexyl-2-hydroxyethanoyl]-L-Thr-D-Ser-polymyxin B heptapeptide, TFA salt] (ξHexahydromandeloyl-[Thr(3ξ)][dS][Dab][Dab][dF]L[Dab][Dab][Thr(3ξ)]; lactam 3-C) | ≤0.06 | 0.125 | 0.125 | ≤0.06 | 0.125 | 0.25 | 1 | 2 | – | 1 | 1 | 2 | 1 | 0.125 | – |
| CC(C)C[C@@H]1NC(=O)[C@@H](Cc2ccccc2)NC(=O)[C@H](CCN)NC(=O)[C@@H](NC(=O)[C@H](CCN)NC(=O)[C@@H](NC(=O)CC2CCCCC2)C(C)O)CCNC(=O)[C@H](C(C)O)NC(=O)[C@H](CCN)NC(=O)[C@H](CCN)NC1=O (some centres unmarked) [Example C4, Cyclohexyl ethanoyl polymyxin B nonapeptide, TFA salt, reference compound] (Cyclohexylacetyl-[Thr(3ξ)][Dab][Dab][Dab][dF]L[Dab][Dab][Thr(3ξ)]; lactam 3-C) | – | – | – | – | – | – | – | – | – | – | – | – | – | – | MIC A. baumannii ATCC BAA-747 (Acinetobacter baumannii; [5]): 0.25 micrograms/mL; MIC A. baumannii CCUG57249 (Acinetobacter baumannii; [5]): 0.25 micrograms/mL; MIC A. baumannii NCTC 13423 (Acinetobacter baumannii; [5]): 0.125 micrograms/mL; MIC A. baumannii NCTC 13424 (Acinetobacter baumannii; [5]): 0.25 micrograms/mL; MIC E. coli ATCC25922 (Escherichia coli; [5]): 0.25 micrograms/mL; MIC E. coli NCTC9001 (Escherichia coli; [5]): 0.5 micrograms/mL; MIC K. pneumoniae ATCC-BAA-2146 (Klebsiella pneumoniae; [5]): 1 micrograms/mL; MIC K. pneumoniae CCUG-59348 (Klebsiella pneumoniae; [5]): 2 micrograms/mL; MIC K. pneumoniae NCTC 13438 (Klebsiella pneumoniae; [5]): 0.5 micrograms/mL; MIC P. aeruginosa ATCC 27853 (Pseudomonas aeruginosa; [5]): 0.5 micrograms/mL; MIC P. aeruginosa ATCC CRM-9027 (Pseudomonas aeruginosa; [5]): 0.5 micrograms/mL; MIC P. aeruginosa ATCC-47 (Pseudomonas aeruginosa; [5]): 1 micrograms/mL; MIC P. aeruginosa CCUG 59626 (Pseudomonas aeruginosa; [5]): 0.25 micrograms/mL |

Further lines, with some results ahead:

| MIC A. baumannii ATCC BAA-747 (Acinetobacter baumannii; [1]) [micrograms/mL] | MIC A. baumannii CCUG57249 (Acinetobacter baumannii; [2]) [micrograms/mL] | MIC A. baumannii NCTC 13423 (Acinetobacter baumannii; [3]) [micrograms/mL] | MIC A. baumannii NCTC 13424 (Acinetobacter baumannii; [4]) [micrograms/mL] | MIC E. coli ATCC25922 (Escherichia coli; [6]) [micrograms/mL] | MIC E. coli NCTC9001 (Escherichia coli; [7]) [micrograms/mL] | MIC K. pneumoniae ATCC-BAA-2146 (Klebsiella pneumoniae; [8]) [micrograms/mL] | MIC K. pneumoniae CCUG-59348 (Klebsiella pneumoniae; [9]) [micrograms/mL] | MIC K. pneumoniae NCTC 13438 (Klebsiella pneumoniae; [10]) [micrograms/mL] | MIC P. aeruginosa ATCC 27853 (Pseudomonas aeruginosa; [11]) [micrograms/mL] | MIC P. aeruginosa ATCC CRM-9027 (Pseudomonas aeruginosa; [12]) [micrograms/mL] | MIC P. aeruginosa ATCC-47 (Pseudomonas aeruginosa; [13]) [micrograms/mL] | MIC P. aeruginosa CCUG 59626 (Pseudomonas aeruginosa; [14]) [micrograms/mL] | MIC K. pneumoniae ATCC 4352 (Klebsiella pneumoniae; MIC = total drug concentration) [micrograms/mL] | SMILES | further results |
| --- | --- | --- | --- | --- | --- | --- | --- | --- | --- | --- | --- | --- | --- | --- | --- |
| ≤0.06 | ≤0.06 | ≤0.06 | ≤0.06 | – | 0.125 | 0.125 | 4 | 0.25 | 0.125 | – | 0.125 | 0.125 | – | CC(C)C[C@@H]1NC(=O)[C@@H](Cc2ccccc2)NC(=O)[C@H](CCN)NC(=O)[C@@H](NC(=O)[C@H](CCN)NC(=O)[C@@H](NC(=O)[C@H]2CC[C@@H](N)C2)C(C)O)CCNC(=O)[C@H](C(C)O)NC(=O)[C@H](CCN)NC(=O)[C@H](CCN)NC1=O (stereo partly drawn) [Example 34A, (1S,3R)-3- Aminocyclopentane carbonyl polymyxin B nonapeptide, trifluoroacetate salt] (X8-[Thr(3ξ)][Dab][Dab][Dab][dF]L[Dab][Dab][Thr(3ξ)]; lactam 3-C) | MIC E. coli ATCC25922 (Escherichia coli; MIC = total drug concentration, strain ATCC25922, trifluoroacetate salt): ≤0.06 micrograms/mL; MIC P. aeruginosa ATCC CRM-9027 (Pseudomonas aeruginosa; MIC = total drug concentration, strain ATCC CRM-9027, trifluoroacetate salt): 0.125 micrograms/mL |
| 0.5 | 0.5 | 0.5 | 0.5 | 0.5 | 1 | 2 | 4 | – | 2 | 2 | 4 | 2 | 0.5 | CCCCCCCC(=O)N[C@H](C(=O)N[C@H](CO)C(=O)N[C@H]1CCNC(=O)[C@H](C(C)O)NC(=O)[C@H](CCN)NC(=O)[C@H](CCN)NC(=O)[C@H](CC(C)C)NC(=O)[C@@H](Cc2ccccc2)NC(=O)[C@H](CCN)NC1=O)C(C)O (some centres unmarked) [Example C1, NAB-739 TFA salt, reference compound] (Octanoyl-[Thr(3ξ)][dS][Dab][Dab][dF]L[Dab][Dab][Thr(3ξ)]; lactam 3-C) | – |
